Reference: the NIST ThermoML archive (doi:10.1016/j.jct.2016.10.034)
± gives the expanded uncertainty stated by the source.

Assay: xn = mol fraction of the nth substance listed
Conditions: 100 kPa, Liquid; for mass density: Vibrating tube method; for viscosity: Falling or rolling sphere viscometry

CC(=O)[O-].CC[N+]1(C)CCCC1 [1-ethyl-1-methylpyrrolidinium acetate] + O
Conditions | mass density [kg/m3] | viscosity [mPa·s]
323.15 K, x1 = 0.1008 | 1031.5 ± 1 | –
323.15 K, x1 = 0.2083 | 1050.5 ± 1 | –
323.15 K, x1 = 0.3171 | 1055.1 ± 1 | –
323.15 K, x1 = 0.4126 | 1055.7 ± 1.1 | –
323.15 K, x1 = 0.481 | 1055.3 ± 1.1 | –
323.15 K, x1 = 0.5857 | 1054.5 ± 1.2 | –
323.15 K, x1 = 0.6728 | 1053.6 ± 1.4 | –
323.15 K, x1 = 0.766 | 1052.2 ± 1.5 | –
323.15 K, x1 = 0.8963 | 1050.9 ± 1.8 | –
328.15 K, x1 = 0.1008 | 1028.3 ± 1 | 3.523 ± 0.35
328.15 K, x1 = 0.2083 | 1047.2 ± 1 | 6.81 ± 0.68
328.15 K, x1 = 0.3171 | 1051.9 ± 1 | 10 ± 1
328.15 K, x1 = 0.4126 | 1052.6 ± 1.1 | 13.5 ± 1.4
328.15 K, x1 = 0.481 | 1052.3 ± 1.1 | 15.8 ± 1.6
328.15 K, x1 = 0.5857 | 1051.6 ± 1.2 | 21.2 ± 2.1
328.15 K, x1 = 0.6728 | 1050.7 ± 1.4 | 28 ± 2.8
328.15 K, x1 = 0.766 | 1049.3 ± 1.5 | 35.2 ± 3.6
328.15 K, x1 = 0.8963 | 1048 ± 1.8 | 48 ± 4.9
333.15 K, x1 = 0.1008 | 1025.1 ± 1 | 3.21 ± 0.32
333.15 K, x1 = 0.2083 | 1043.8 ± 1 | 6.14 ± 0.62
333.15 K, x1 = 0.3171 | 1048.7 ± 1 | 8.67 ± 0.87
333.15 K, x1 = 0.4126 | 1049.5 ± 1.1 | 11.5 ± 1.2
333.15 K, x1 = 0.481 | 1049.3 ± 1.1 | 13.5 ± 1.4
333.15 K, x1 = 0.5857 | 1048.5 ± 1.2 | 18.1 ± 1.8
333.15 K, x1 = 0.6728 | 1047.7 ± 1.3 | 23.2 ± 2.3
333.15 K, x1 = 0.766 | 1046.2 ± 1.5 | 29.1 ± 2.9
333.15 K, x1 = 0.8963 | 1045 ± 1.8 | 39.5 ± 4
338.15 K, x1 = 0.1008 | 1021.8 ± 1 | 2.94 ± 0.3
338.15 K, x1 = 0.2083 | 1040.5 ± 1 | 5.49 ± 0.55
338.15 K, x1 = 0.3171 | 1045.5 ± 1 | 7.52 ± 0.76
338.15 K, x1 = 0.4126 | 1046.4 ± 1.1 | 9.88 ± 0.99
338.15 K, x1 = 0.481 | 1046.2 ± 1.1 | 11.6 ± 1.2
338.15 K, x1 = 0.5857 | 1045.6 ± 1.2 | 15.4 ± 1.6
338.15 K, x1 = 0.6728 | 1044.9 ± 1.3 | 19.8 ± 2
338.15 K, x1 = 0.766 | 1043.5 ± 1.5 | 24.6 ± 2.5
338.15 K, x1 = 0.8963 | 1042.3 ± 1.8 | 32.6 ± 3.3
343.15 K, x1 = 0.1008 | 1018.5 ± 1 | 2.65 ± 0.27
343.15 K, x1 = 0.2083 | 1037.1 ± 1 | 4.78 ± 0.48
343.15 K, x1 = 0.3171 | 1042.2 ± 1 | 6.72 ± 0.68
343.15 K, x1 = 0.4126 | 1043.3 ± 1.1 | 8.58 ± 0.86
343.15 K, x1 = 0.481 | 1043.2 ± 1.1 | 10.1 ± 1
343.15 K, x1 = 0.5857 | 1042.6 ± 1.2 | 13.1 ± 1.3
343.15 K, x1 = 0.6728 | 1041.9 ± 1.3 | 16.9 ± 1.7
343.15 K, x1 = 0.766 | 1040.5 ± 1.5 | 20.9 ± 2.1
343.15 K, x1 = 0.8963 | 1039.3 ± 1.8 | 27.2 ± 2.8
348.15 K, x1 = 0.1008 | 1015.2 ± 1.1 | 2.46 ± 0.25
348.15 K, x1 = 0.2083 | 1033.6 ± 1.1 | 4.38 ± 0.44
348.15 K, x1 = 0.3171 | 1039 ± 1 | 5.79 ± 0.58
348.15 K, x1 = 0.4126 | 1040.1 ± 1.1 | 7.52 ± 0.76
348.15 K, x1 = 0.481 | 1040.1 ± 1.1 | 8.82 ± 0.89
348.15 K, x1 = 0.5857 | 1039.7 ± 1.2 | 11.4 ± 1.1
348.15 K, x1 = 0.6728 | 1039 ± 1.3 | 14.6 ± 1.5
348.15 K, x1 = 0.766 | 1037.6 ± 1.5 | 17.3 ± 1.8
348.15 K, x1 = 0.8963 | 1036.7 ± 1.8 | 22.4 ± 2.3
